# Results: patent US20170334899A1, “AMINO-SUBSTITUTED ISOTHIAZOLES” (Bayer Pharma Aktiengesellschaft, priority 2014, published 2017)
# Molecular target: T1, human kinase Mps-1 (Homo sapiens, UniProt P33981)
# T1 construct: N-terminally GST-tagged human full length recombinant Mps-1 kinase; GST (N); purchased Invitrogen, Karslruhe, Germany PV4071
# T1 sequence (P33981 1-857): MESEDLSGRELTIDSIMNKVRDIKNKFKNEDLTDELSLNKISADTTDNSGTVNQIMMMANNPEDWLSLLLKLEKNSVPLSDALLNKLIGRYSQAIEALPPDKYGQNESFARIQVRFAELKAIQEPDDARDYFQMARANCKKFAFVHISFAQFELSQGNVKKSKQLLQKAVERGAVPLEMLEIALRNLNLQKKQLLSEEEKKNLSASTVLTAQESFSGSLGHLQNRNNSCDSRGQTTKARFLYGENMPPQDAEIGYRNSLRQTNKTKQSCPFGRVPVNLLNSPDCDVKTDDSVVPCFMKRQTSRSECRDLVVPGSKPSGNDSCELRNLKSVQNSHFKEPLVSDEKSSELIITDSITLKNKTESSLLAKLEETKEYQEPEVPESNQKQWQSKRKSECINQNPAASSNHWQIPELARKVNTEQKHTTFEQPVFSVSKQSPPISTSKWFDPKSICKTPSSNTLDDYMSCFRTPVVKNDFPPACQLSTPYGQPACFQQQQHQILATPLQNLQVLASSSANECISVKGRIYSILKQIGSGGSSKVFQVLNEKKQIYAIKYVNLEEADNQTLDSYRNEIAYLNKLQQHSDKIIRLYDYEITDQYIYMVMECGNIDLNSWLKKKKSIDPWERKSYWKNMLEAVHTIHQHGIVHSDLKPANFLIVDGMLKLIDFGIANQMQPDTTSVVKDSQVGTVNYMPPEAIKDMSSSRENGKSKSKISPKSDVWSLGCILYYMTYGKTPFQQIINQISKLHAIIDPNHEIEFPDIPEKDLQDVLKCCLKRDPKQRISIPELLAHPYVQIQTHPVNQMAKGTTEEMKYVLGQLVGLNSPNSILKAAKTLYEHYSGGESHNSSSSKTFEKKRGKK
# Experiment: Mps-1 kinase assay (TR-FRET)
# Type: biochemical
# Settings: Mps-1 TR-FRET kinase assay; avg; read-out: Mps1 avg (IC50 [mol/l])
# Procedure, shortened: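 Inhibition normalised between uninhibited reaction (0%) and enzyme-free wells (100%), using the blank-corrected TR-FRET 665/620 nm ratio after EDTA stop. Reaction: ~0.5 nM GST-Mps-1 full length, 10 μM ATP, 1 μM biotin-peptide, 60 min at 22 °C, after 15 min compound pre-binding, pH 7.7.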
row,Compound,IC50 [µM]
1,"Cc1nsc(Nc2cnc(C(F)(F)F)cn2)c1C(=O)Nc1ccc(OCCCN(C)CC(F)(F)F)nc1 [Example 354, 3-methyl-N-(6-{3-[methyl(2,2,2-trifluoroethyl)amino]propoxy}pyridin-3-yl)-5-{[5-(trifluoromethyl)pyrazin-2-yl]amino}-1,2-thiazole-4-carboxamide]",≥ 20
2,"Cc1nsc(Nc2cnc(C(F)(F)F)cn2)c1C(=O)Nc1ccc(F)c(OCC2CCCN(CCF)C2)c1 (stereo not drawn) [Example 336, N-(4-fluoro-3-{[1-(2-fluoroethyl)piperidin-3-yl]methoxy}phenyl)-3-methyl-5-{[5-(trifluoromethyl)pyrazin-2-yl]amino}-1,2-thiazole-4-carboxamide]",≥ 20
3,"Cc1nsc(Nc2cnc(C(F)(F)F)cn2)c1C(=O)Nc1ccc(OCCCN(C)CCF)nc1 [Example 352, N-(6-{3-[(2-fluoroethyl)(methyl)amino]propoxy}pyridin-3-yl)-3-methyl-5-{[5-(trifluoromethyl)pyrazin-2-yl]amino}-1,2-thiazole-4-carboxamide]",> 20
4,"Cc1nsc(Nc2cnc(C(F)(F)F)cn2)c1C(=O)Nc1ccc(OC2CCCN(CC(F)F)C2)nc1 (stereo not drawn) [Example 330, N-(6-{[1-(2,2-difluoroethyl)piperidin-3-yl]oxy}pyridin-3-yl)-3-methyl-5-{[5-(trifluoromethyl)pyrazin-2-yl]amino}-1,2-thiazole-4-carboxamide]",≥ 20
5,"Cc1nsc(Nc2ccc(C#N)cn2)c1C(=O)Nc1ccc(OC2CCNCC2)nc1 [Example 28, 5-[(5-Cyanopyridin-2-yl)amino]-3-methyl-N-[6-(piperidin-4-yloxy)pyridin-3-yl]-1,2-thiazole-4-carboxannide]",≥ 20
6,"Cc1nsc(Nc2cnc(C(F)(F)F)cn2)c1C(=O)Nc1ccc(OCCN(C)CCC(F)(F)F)nc1 [Example 351, 3-methyl-N-(6-{2-[methyl(3,3,3-trifluoropropyl)amino]ethoxy}pyridin-3-yl)-5-{[5-(trifluoromethyl)pyrazin-2-yl]amino}-1,2-thiazole-4-carboxamide]",> 20
7,"Cc1nsc(Nc2cnc(C(F)(F)F)cn2)c1C(=O)Nc1ccc(C2CCN(CC(F)F)CC2)nc1 [Example 357, N-{6-[1-(2,2-difluoroethyl)piperidin-4 yl]pyridin-3-yl}-3-methyl-5-{[5-(trifluoromethyl)pyrazin-2-yl]amino}-1,2-thiazole-4-carboxamide]",> 20
8,"Cc1nsc(Nc2ccc(C#N)cn2)c1C(=O)Nc1ccc(OC2CCN(CCF)CC2)nc1 [Example 29, 5-[(5-Cyanopyridin-2-yl)amino]-N-(6-{[1-(2-fluoroethyl)piperidin-4-yl]oxy}pyridin-3-yl)-3-methyl-1,2-thiazole-4-carboxamide]",≥ 20
9,"Cc1nsc(Nc2cnc(C(F)(F)F)cn2)c1C(=O)Nc1ccc(N2CCN(CCC(F)(F)F)CC2)cn1 [Example 374, 3-methyl-5-{[5-(trifluoromethyl)pyrazin-2-yl]amino}-N-{5-[4-(3,3,3-trifluoropropyl)piperazin-1-yl]pyridin-2-yl}-1,2-thiazole-4-carboxamide]",> 20
10,"Cc1nsc(Nc2ccc(C#N)cn2)c1C(=O)Nc1ccc(OC2CCN(CC(F)(F)F)CC2)nc1 [Example 30, 5-[(5-Cyanopyridin-2-yl)amino]-3-methyl-N-(6-{[1-(2,2,2-trifluoroethyl)piperidin-4-yl]oxy}pyridin-3-yl)-1,2-thiazole-4-carboxamide]",≥ 20
11,"Cc1nsc(Nc2cnc(C(F)(F)F)cn2)c1C(=O)Nc1ccc(N2CCN(CC(F)(F)F)CC2)nc1 [Example 360, 3-methyl-N-{6-[4-(2,2,2-trifluoroethyl)piperazin-1-yl]pyridin-3-yl}-5-{[5-(trifluoromethyl)pyrazin-2-yl]amino}-1,2-thiazole-4-carboxamide]",> 20
12,"Cc1nsc(Nc2cnc(C(F)(F)F)cn2)c1C(=O)Nc1ccc(N2CCN(CC(F)(F)F)CC2)cn1 [Example 373, 3-methyl-N-{5-[4-(2,2,2-trifluoroethyl)piperazin-1-yl]pyridin-2-yl}-5-{[5-(trifluoromethyl)pyrazin-2-yl]amino}-1,2-thiazole-4-carboxamide]",> 20
13,"Cc1nsc(Nc2cnc(C(F)(F)F)cn2)c1C(=O)Nc1ccc(O[C@@H]2CCN(CC(F)F)C[C@H]2F)nc1 [Example 366, N-(6-{[(3R,4R)-1-(2,2-difluoroethyl)-3-fluoropiperidin-4-yl]oxy}pyridin-3-yl)-3-methyl-5-{[5-(trifluoromethyl)pyrazin-2-yl]amino}-1,2-thiazole-4-carboxamide]",> 20
14,"Cc1nsc(Nc2cnc(C(F)(F)F)cn2)c1C(=O)Nc1ccc(N2CCN(CC(F)F)CC2)cn1 [Example 372, N-{5-[4-(2,2-difluoroethyl)piperazin-1-yl]pyridin-2-yl}-3-methyl-5-{[5-(trifluoromethyl)pyrazin-2-yl]amino}-1,2-thiazole-4-carboxamide]",> 20
15,"Cc1nsc(Nc2cnc(C(F)(F)F)cn2)c1C(=O)Nc1ccc(O[C@@H]2CCCN(CCC(F)(F)F)C2)nc1 [Example 387, 3-methyl-5-{[5-(trifluoromethyl)pyrazin-2-yl]amino}-N-(6-{[(3R)-1-(3,3,3-trifluoropropyl)piperidin-3-yl]oxy}pyridin-3-yl)-1,2-thiazole-4-carboxamide]",≥ 20
16,"Cc1nsc(Nc2cnc(C(F)(F)F)cn2)c1C(=O)Nc1ccc(OCC2CCCN(CCF)C2)nc1 (stereo not drawn) [Example 325, N-(6-{[1-(2-fluoroethyl)piperidin-3-yl]methoxy}pyridin-3-yl)-3-methyl-5-{[5-(trifluoromethyl)pyrazin-2-yl]amino}-1,2-thiazole-4-carboxamide]",≥ 20
17,"Cc1nsc(Nc2cnc(C(F)(F)F)cn2)c1C(=O)Nc1ccc(OCC2CCN(CCC(F)(F)F)CC2)nc1 [Example 347, 3-methyl-5-{[5-(trifluoromethyl)pyrazin-2-yl]amino}-N-(6-{[1-(3,3,3-trifluoropropyl)piperidin-4-yl]methoxy}pyridin-3-yl)-1,2-thiazole-4-carboxamide]",> 20
18,"Cc1nsc(Nc2cnc(C(F)(F)F)cn2)c1C(=O)Nc1ccc(C2CCN(CC(F)(F)F)CC2)nc1 [Example 358, 3-methyl-N-{6-[1-(2,2,2-trifluoroethyl)piperidin-4-yl]pyridin-3-yl}-5-{[5-(trifluoromethyl)pyrazin-2-yl]amino}-1,2-thiazole-4-carboxamide]",> 20
19,"Cc1nsc(Nc2cnc3ccccc3n2)c1C(=O)Nc1ccc(OC2CCCN(C(=O)OC(C)(C)C)C2)nc1 (stereo not drawn) [Example 31, tert-Butyl 3-{[5-({[3-methyl-5-(quinoxalin-2-ylamino)-1,2-thiazol-4-yl]carbonyl}-amino)pyridin-2-yl]oxy}piperidine-1-carboxylate]",≥ 20
20,"Cc1nsc(Nc2cnc(C(F)(F)F)cn2)c1C(=O)Nc1ccc(OCC2CCCN(CC(F)(F)F)C2)nc1 (stereo not drawn) [Example 326, 3-methyl-N-(6-{[1-(2,2,2-trifluoroethyl)piperidin-3-yl]methoxy}pyridin-3-yl)-5-{[5-(trifluoromethyl)pyrazin-2-yl]amino}-1,2-thiazole-4-carboxamide]",≥ 20
21,"Cc1nsc(Nc2cnc(C(F)(F)F)cn2)c1C(=O)Nc1ccc(OCCN(C)CC(F)(F)F)nc1 [Example 350, 3-methyl-N-(6-{2-[methyl(2,2,2-trifluoroethyl)amino]ethoxy}pyridin-3-yl)-5-{[5-(trifluoromethyl)pyrazin-2-yl]amino}-1,2-thiazole-4-carboxamide]",≥ 20
22,"Cc1nsc(Nc2cnc3ccccc3n2)c1C(=O)Nc1ccc(OC2CCCNC2)nc1 (stereo not drawn) [Example 32, 3-Methyl-N-[6-(piperidin-3-yloxy)pyridin-3-yl]-5-(quinoxalin-2-ylamino)-1,2-thiazole-4-carboxannide]",15
23,"Cc1nsc(Nc2cnc(C(F)(F)F)cn2)c1C(=O)Nc1ccc(OCC2CCCN(CCC(F)(F)F)C2)nc1 (stereo not drawn) [Example 328, 3-methyl-5-{[5-(trifluoromethyl)pyrazin-2-yl]amino}-N-(6-{[1-(3,3,3-trifluoropropyl)piperidin-3-yl]methoxy}pyridin-3-yl)-1,2-thiazole-4-carboxamide]",≥ 20
24,"Cc1nsc(Nc2cnc(C(F)(F)F)cn2)c1C(=O)Nc1ccc(O[C@@H]2CCN(CCC(F)(F)F)C[C@H]2F)nc1 [Example 368, N-(6-{[(3R,4R)-3-fluoro-1-(3,3,3-trifluoropropyl)piperidin-4-yl]oxy}pyridin-3-yl)-3-methyl-5-{[5-(trifluoromethyl)pyrazin-2-yl]amino}-1,2-thiazole-4-carboxamide]",> 20
